For four compounds, melting point and Ki results are on record in patent US6432974B1, “Pyrrolo-isoquinoline and tetra-hydropyrrolo-isoquinoline derivatives and their use as mediators of the 5-HT7 receptor” (Wyeth, priority 2000, dated 2002).

Data set [1] deals with T1, human 5HT7 receptor (Homo sapiens, UniProt P34969).
T1 construct: purchased BioSignal Drug Discovery Technology, Montreal, Canada; host or cells: CHO cells (stably transfected), membranes
The data set can be described thus: 5-HT7 Receptor Binding Assay ([3H]LSD displacement, CHO cell membranes).

Molecules are shown by their SMILES. pKi: −log10 of the molar value. Counter-ions that a name gives are not always drawn. Like-named read-outs stand apart in the source and are kept apart here.

T1 sequence (P34969 whole entry): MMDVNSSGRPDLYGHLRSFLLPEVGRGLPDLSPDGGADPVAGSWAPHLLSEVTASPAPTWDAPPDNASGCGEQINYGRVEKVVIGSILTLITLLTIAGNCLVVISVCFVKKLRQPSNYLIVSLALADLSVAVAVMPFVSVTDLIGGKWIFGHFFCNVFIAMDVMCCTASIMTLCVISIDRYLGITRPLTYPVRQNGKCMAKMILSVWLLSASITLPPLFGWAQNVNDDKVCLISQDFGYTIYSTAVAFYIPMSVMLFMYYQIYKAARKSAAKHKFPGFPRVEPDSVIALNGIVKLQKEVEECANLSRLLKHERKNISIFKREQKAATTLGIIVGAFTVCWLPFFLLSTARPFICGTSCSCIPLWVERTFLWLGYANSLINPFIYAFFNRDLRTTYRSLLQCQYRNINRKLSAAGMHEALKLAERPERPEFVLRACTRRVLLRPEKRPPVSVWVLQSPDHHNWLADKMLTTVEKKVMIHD

As for `NCCc1c[nH]c2cc3c(cc12)C(=O)N(Cc1ccccc1)CC3` (as salt: HCl) (hydrate or solvate), the melting point – broadly, the temperature of the solid-liquid transition – lay in the range of 262 to 263 °C.
`NCCc1c[nH]c2cc3c(cc12)C(=O)NCC3` (as salt: salt) (hydrate or solvate) [Compound 1, 3-(2-Amino-ethyl)-1,6,7,8-tetrahydro-pyrrolo[2,3-g]isoquinolin-5-one] gave a melting point of 82 to 86 °C.
Regarding `NCCc1c[nH]c2cc3c(cc12)C(=O)NCC3` [Compound 1, 3-(2-Amino-ethyl)-1,6,7,8-tetrahydro-pyrrolo[2,3-g]isoquinolin-5-one], in data set [1], the pKi (commonly −log10 of the Ki, conventionally taken in molar units) is 7.85.
Take `CN1CCN(C2=Nc3ccccc3Oc3ccc(Cl)cc32)CC1` [Loxapine, reference compound]: in data set [1] (displacement of [3H]LSD, cloned human 5-HT7 receptor membranes from CHO cells, value with 95% confidence interval, read-out: 5-HT7 binding Ki), the pKi was 7.37.
